Converted amounts (≈) assume the structure as drawn.
Legend:
[1] = test system: Aphidius rhopalosiphi; assay: LR50; higher = less toxic; details: not reported; mortality
[2] = test system: Lepomis macrochirus; details: acute; duration: 96 hours; mortality
[3] = test system: Apis mellifera; details: acute; duration: 48 hours; oral; unspecified; mortality
[4] = test system: Daphnia magna; details: chronic/long-term; duration: 21 days; reproduction
[5] = test system: Rattus norvegicus
[6] = test system: Tagia sp.; details: acute; duration: 14 days; mortality
[7] = test system: Oncorhynchus mykiss; details: chronic/long-term; duration: 91 days; mortality
[8] = test system: Bibionidae; details: chronic/long-term; duration: 28 days
[9] = test system: Canidae; details: chronic; duration: 2 years; oral; diet; Dog Other; body weight
[10] = test system: Coturnix coturnix; details: acute; oral; mortality
[11] = reproduction developmental, organ weight

CCOC(=O)[C@@H](C)Oc1ccc(Oc2nc3ccc(Cl)cc3o2)cc1 [Fenoxaprop-P-ethyl]
LR50 [1]: 46.4 g/ha | LC50 [2]: 0.19 µg/mL (≈ 0.525 µM) | LD50 [3]: > 199 µg/piece | NOEC [4]: 0.22 mg/L | LD50 ([5]; acute, oral, mortality): > 3150 mg/kg-day | NOAEL ([5]; developmental, development): 10 mg/kg-day | NOAEL [5, 11]: 1.4 mg/kg-day | LC50 [6]: > 1000 mg/kg | NOEC [7]: 0.036 mg/L | NOEC [8]: 0.2 mg/L | NOAEL [9]: 1 mg/kg-day | LD50 [10]: 2000 mg/kg-day

CCOC(=O)C(C)Oc1ccc(Oc2nc3ccc(Cl)cc3o2)cc1 (stereo not given) [Fenoxaprop-ethyl]
NOAEL ([5]; developmental, development): 10 mg/kg-day | NOAEL [5, 11]: 1.4 mg/kg-day | NOAEL [9]: 1 mg/kg-day

Reference: EPA's ToxValDB 9.5 (doi:10.2903/j.efsa.2007.121r)
